Results: patent publication US20050075312A1, “Antitumor inhibitors and use thereof” (priority 2003, published 2005)
Where “and” joins values, the source holds several entries; their conditions need not be identical. Equal entries are not always repeated.

What was measured:
[1] = system: chick embryonic angiogenesis; experiment: chorioallantoic membrane (CAM) assay; assay type: in vivo, chicken; settings: for Eggs showing antiangiogenesis: avascular zone exceeded 3 mm
Experimental: The effect of acharan sulfate on the inhibition of angiogenesis was performed using the choroioallantoic membrane (CAM) assay. These assays essentially followed previously published procedures (Tanaka et al, 1986; Oikawa et al., 1990). In brief, fertilized chicken eggs were incubated in the constant humidified breeder at 37° C. On the third day of incubation, about 2 ml of egg albumin were aspirated by an 18-gauge hypodermic needle, to detach the developing CAM from the shell. One and half days later, sample-loaded thermanox coverslips (Nunc, Naperville, Ill.) were air-dried and applied to the CAM surface for testing of angiogenesis inhibition by AS. Two days later, 1 ml of 10% fat emulsion (Intralipose) was injected into the chorioallantoic membrane and the avascular zone was observed under a dissecting microscope. Inhibition of angiogenesis was assessed when the avascular zone exceeded 3 mm. In order to abolish the possibility of contaminant in AS, the depolymerized product by heparinase II as described above was also tested for the antiangiogenic activity. The concentration of AS used in this assay was selected based on the concentration of heparin that had previously been applied in the same assay (Collen et al., 2000).
On day 4.5, CAMs were treated with different doses of AS for 2 days. The dose-response relationship for the appearance of avascular zone was determined.

[2] = system: calf pulmonary artery endothelial (CPAE) cells; experiment: CPAE cell proliferation by MTT assay; assay type: cell-based; settings: for growth inhibition: 3-day treatment
Experimental: The effect of acharan sulfate on in vitro cell proliferation was carried out using calf pulmonary artery endothelial (CPAE) cells as follows.
CPAE cells were seeded in a 24 well plate at a cell density of 10^5 cells/well in 90% RPMI and 10% FBS. After 24 h incubation, the cells were treated with various concentrations of AS. Three days later, new media and MTT solution were added to each well. After incubation at 37° C. for 4 h, the absorbance of treated cells at 540 nm was compared to that of control cells.

[3] = system: matrix metalloprotease; experiment: antiprotease activity; assay type: biochemical
[4] = system: Lewis lung carcinoma cells; experiment: tumor growth in Lewis lung carcinoma-bearing mice; assay type: in vivo, C57BL/6 mice; settings: for tumor growth inhibited (volume): vs saline
[5] = system: sarcoma 180; experiment: solid tumor induced by sarcoma 180 tumor cells; assay type: in vivo, ICR mice; settings: for tumor weight: control 7.1±0.1; for tumor weight / tumor volume: mean±S.E.M.; for tumor volume: control 8804±465.3
Experimental: For solid tumor development, ICR mice were injected with 0.1 ml of sarcoma 180 suspensions into the right hind limbs. After 6 days of tumor transplantation, mice randomized into six groups were injected i.p. with AS (50 and 100 mg/kg) and 5-FU (25 mg/kg) once a day for 9 days. Eight days later after treatment, animals were sacrificed by cervical […], and solid tumors were removed and weighed.

[6] = target: bFGF (Homo sapiens, UniProt P09038); settings: in vitro (Wang et al., 1997); cited from earlier work
Chain of bFGF (P09038 143-288, species assumed): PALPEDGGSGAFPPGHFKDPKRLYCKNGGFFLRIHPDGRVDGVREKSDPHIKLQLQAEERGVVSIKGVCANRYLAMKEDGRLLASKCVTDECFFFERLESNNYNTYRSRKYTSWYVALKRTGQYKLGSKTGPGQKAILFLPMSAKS

[7] = system: Lewis lung carcinoma cells; experiment: tumor growth in Lewis lung carcinoma-bearing mice; assay type: in vivo, C57BL/6 mice; settings: for tumor volume: saline 4534.4; for mean tumor weight reduction: day 21, vs saline; for tumor weight: day 21, saline 4.5±0.7
Experimental: Male C57BL/6 mice were inoculated s.c. in the back with LLC cells (1×10^6/animal) on day 0. After tumor volume was at least 60-100 mm^3, AS was administered into the subcutaneous region near the tumor mass at two doses of 10 and 30 mg/kg for 15 days. The size of tumors in all groups was measured using a dial-caliper and the volume of tumors was determined using the formula width^2×length×0.52 (Voest et al., 1995; Cao et al., 1995). The effects of AS on tumor growth and host survival were also measured by evaluating tumor volumes, tumor weights and percentage increase in lifespan of tumor hosts, respectively (Oguchi et al., 1987; Kusumoto, 1991). For calculating the survival time, mice were inoculated i.p. with […] sarcoma 180 cells/mouse on day 0 and the treatment with two doses of AS (50 and 100 mg/kg, i.p.) were started 24 h after inoculation for nine consecutive days. The control group was treated with saline. Median survival time (MST) for each group (n=7) was observed and the antitumor activity of the test compounds were compared with that of control group by measuring the increase in lifespan.

[8] = system: bFGF-induced angiogenesis; experiment: mouse matrigel plug assay; assay type: in vivo, C57BL/6J mice
Experimental: The effect of acharan sulfate on the inhibition of angiogenesis was also evaluated in the matrigel plug assay. This assay was performed as previously described (Passaniti et al., 1992). Acharan sulfate, dissolved in water, bFGF and heparin, dissolved in 0.1% bovine serum albumen (BSA)/phosphate buffered saline (PBS) were mixed with liquid matrigel (Collaborative Biomedical Products, Bedford, Mass.) in proportions not exceeding 1% of the total volume of matrigel. A mixture of 0.5 ml matrigel with AS or vehicle was injected subcutaneously into C57BL/6J mice. After injection, the matrigel rapidly formed a plug. […] The amount of hemoglobin (Hb) inside the matrigel was measured using the Drabkin method (Drabkin and Austin, 1932) and Drabkin reagent 525 for the quantitation of blood vessel formation. The concentration of Hb was calculated based on a Hb standard measured simultaneously.
To evaluate the effect of AS on ongoing angiogenic process in the mouse matrigel plug assay matrigel, heparin (10 units/500 μl), and bFGF (100 ng/500 μl) with or without AS were injected s.c. into C57BL/6 mice. […] We next measured the hemoglobin content inside the matrigel plugs to quantify the angiogenesis. Whereas bFGF and heparin increased Hb concentration to 11.8 g/dl and the Hb concentration inside the control was 0.3 g/dl, AS decreased the heparin and bFGF-elevated Hb quantity to about 8.6 g/dl (FIG. 3). […]

[9] = system: sarcoma 180 ascitic tumor; experiment: survival time of mice with sarcoma 180 ascitic tumor; assay type: in vivo
[10] = 10 mg/kg daily s.c., end of 15-day treatment
[11] = 50 mg/kg i.p. once a day for 9 days, vs control
[12] = 50 mg/kg i.p. once a day for 9 days

**Q.** For Acharan sulfate [AS], which “% inhibition” value ([1]; 5 μg/egg) is on record?
**A.** 48.3%

**Q.** And the Eggs showing antiangiogenesis ([1]; 5 μg/egg, 29 eggs tested)?
**A.** 14

**Q.** And the “% inhibition” value ([1]; 10 μg/egg)?
**A.** 55.6%

**Q.** And the Eggs showing antiangiogenesis ([1]; 10 μg/egg, 27 eggs tested)?
**A.** 15

**Q.** What about the growth inhibition ([2]; 1 μg/ml) of the same compound?
**A.** 15.2%

**Q.** What about the growth inhibition ([2]; 10 μg/ml) of the same compound?
**A.** 24.9%

**Q.** What about the “cytotoxic effect on CPAE cell viability” value ([2]; increasing concentrations, data not shown) of the same compound?
**A.** no cytotoxic effect

**Q.** What about the antiprotease activity [3] of the same compound?
**A.** no detectable antiprotease activity

**Q.** What about the “tumor growth inhibited (volume)” value [4, 10] of the same compound?
**A.** 32.8%

**Q.** And the tumor volume inhibited [5, 11]?
**A.** 45.0%

**Q.** What about the tumor weight inhibited [5, 11] of the same compound?
**A.** 39.6%

**Q.** What about the tumor weight [5, 12] of the same compound?
**A.** 4.3 ± 0.1 g

**Q.** And the tumor volume [5, 12]?
**A.** 4799±345.2 mm^3

**Q.** And the “effect on heparin's bFGF mitogenicity” value [6]?
**A.** interfered with heparin's bFGF mitogenicity in vitro

**Q.** And the tumor volume [7, 10]?
**A.** 3049.2 mm^3

**Q.** What about the “mean tumor weight reduction” value ([7]; 10 mg/kg s.c.) of the same compound?
**A.** 37.8%

**Q.** What about the tumor weight ([7]; 10 mg/kg s.c.) of the same compound?
**A.** 2.8 ± 0.2 g

**Q.** And the “tumor growth inhibited (volume)” value ([7]; 30 mg/kg daily s.c., end of 15-day treatment, vs saline)?
**A.** 38.1%

**Q.** What about the tumor volume ([7]; 30 mg/kg daily s.c., end of 15-day treatment) of the same compound?
**A.** 2809.3 mm^3

**Q.** And the “mean tumor weight reduction” value ([7]; 30 mg/kg s.c.)?
**A.** 48.9%

**Q.** What about the tumor weight ([7]; 30 mg/kg s.c.) of the same compound?
**A.** 2.3 ± 0.2 g

**Q.** What about the “body weight of mice over the course of treatment” value ([7]; 10 and 30 mg/kg s.c., 15 days) of the same compound?
**A.** did not lose weight

**Q.** What about the “vessel induction in matrigel” value ([8]; fifty micrograms of AS in combination with bFGF and heparin) of the same compound?
**A.** slightly prevented the vessel induction

**Q.** And the “Hb concentration inside the matrigel plug” value ([8]; fifty micrograms of AS with bFGF and heparin, s.c., seven days, bFGF and heparin alone 11.8, control 0.3)?
**A.** about 8.6 g/dl

**Q.** What about the “lifespan increased against the control group” value ([9]; 30 mg/kg/day for 9 consecutive days) of the same compound?
**A.** 1.5 fold

**Q.** And the median survival time ([9]; 30 mg/kg/day for 9 consecutive days, control 22.4±2.2)?
**A.** 34.3 ± 2.6 days

**Q.** And the “lifespan prolonged against the control group” value ([9]; 50 mg/kg/day for 9 consecutive days)?
**A.** 1.8 fold

**Q.** What about the median survival time ([9]; 50 mg/kg/day for 9 consecutive days, control 22.4±2.2) of the same compound?
**A.** 40.6 ± 3.1 days

**Q.** Which “loss of weight of treated mice” value ([4]; 10 mg/kg i.v. every five day, compared with control mice) does the source give for `COc1cccc2c1C(=O)c1c(O)c3c(c(O)c1C2=O)C[C@@](O)(C(=O)CO)C[C@@H]3O[C@H]1C[C@H](N)[C@H](O)[C@H](C)O1` [Doxorubicin] here?
**A.** marked

**Q.** And the tumor weight reduction ([4]; 10 mg/kg i.v. every five day, day 21, vs saline)?
**A.** 68.0%

**Q.** And the tumor weight ([4]; 10 mg/kg i.v. every five day, day 21, saline 4.5±0.7)?
**A.** 1.6 ± 0.2 g

**Q.** And the injection area ([4]; 10 mg/kg i.v. every five day, over the treatment)?
**A.** significantly damaged

**Q.** What about the “tumor growth inhibited (volume)” value ([4]; 10 mg/kg i.v. every five day) of the same compound?
**A.** 62.0%

**Q.** And the tumor volume ([4]; 10 mg/kg i.v. every five day, saline 4534.4)?
**A.** 1721.6 mm^3

**Q.** What does the source list for `O=c1[nH]cc(F)c(=O)[nH]1` [5-FU, 5-fluorouracil]?
**A.** tumor weight inhibited ([5]; 25 mg/kg i.p. once a day for 9 days, vs control): 75.1% and 55.8%; tumor weight ([5]; 25 mg/kg i.p. once a day for 9 days): 1.8 ± 0.3 g and 3.1 ± 0.3 g; tumor volume decreased ([5]; 5-FU 25 mg/kg i.p. once a day for 9 days, vs control): 82.1%; tumor volume ([5]; 5-FU 25 mg/kg i.p. once a day for 9 days): 1572±201.5 mm^3; median survival time (MST) ([9]; 25 mg/kg, control 22.4±2.2): 42.8 ± 4.2 days

**Q.** With `CC1=C(/C=C/C(C)=C/C=C/C(C)=C/C(=O)O)C(C)(C)CCC1` [Retinoic acid, all-trans-retinoic acid, reference compound] as the compound, how does the “% inhibition” value ([1]; 1 μg/egg) read?
**A.** 80%

**Q.** What about the Eggs showing antiangiogenesis ([1]; 1 μg/egg, 25 eggs tested) of the same compound?
**A.** 20
